Laboratory results published in ChEMBL document CHEMBL4715897, “A new 1-nitro-9-aminoacridine derivative targeting yeast topoisomerase II able to overcome fluconazole-resistance” (2021).
Converted amounts (≈) assume the structure as drawn. The source made the active and inactive calls. No cut-off for these calls is given here.

How the values were obtained:
Saccharomyces cerevisiae [1] = assay: Inhibition of Saccharomyces cerevisiae DNA topoisomerase 2 assessed as decrease in relaxation of supercoiled DNA using supercoiled pBR322 plasmid DNA at 1 to 200 uM gel electrophoresis method; conditions: dose 1-200 µM
Nakaseomyces glabratus [2] = assay: Fungicidal activity against Candida glabrata DSM 11226; assay type: functional
Pichia kudriavzevii [3] = assay: Antifungal activity against Candida krusei ATCC 6258 assessed as reduction in microbial growth; assay type: functional
Candida albicans [4] = assay: Antifungal activity against fluconazole-sensitive Candida albicans Gu4 assessed as reduction in microbial growth; assay type: functional
Candida albicans [5] = assay: Antifungal activity against fluconazole-resistant Candida albicans B4 assessed as reduction in microbial growth; assay type: functional
Candida albicans [6] = assay: Growth inhibition of Candida albicans ATCC 10231 assessed as reduction in yeast to mycelium formation by measuring reduction in hyphal growth at concentration of 0.25 MIC after 3 hrs in YPG medium by light microscopic method relative to control; assay type: functional, organism-based
[7] = Ratio of MFC for fungicidal activity against Saccharomyces cerevisiae ATCC 9763 to MIC for antifungal activity against Saccharomyces cerevisiae ATCC 9763; assay type: functional
Candida albicans [8] = assay: Growth inhibition of Candida albicans ATCC 10231 assessed as reduction in yeast to mycelium formation by measuring reduction in hyphal growth at concentration of 0.25 MIC after 3 hrs in G1cNAc medium by light microscopic method relative to control; assay type: functional, organism-based
Candida albicans [9] = assay: Growth inhibition of Candida albicans ATCC 10231 assessed as reduction in yeast to mycelium formation by measuring reduction in hyphal growth at 0.25 MIC after 3 hrs by light microscopic method relative to control; assay type: functional
Candida albicans [10] = assay: Antifungal activity against fluconazole-resistant Candida albicans F5 assessed as reduction in microbial growth; assay type: functional
Candida parapsilosis [11] = assay: Antifungal activity against Candida parapsilosis ATCC 22019 assessed as reduction in microbial growth; assay type: functional; conditions: Lodderomyces parapsilosis
Candida albicans [12] = assay: Antibiofilm activity against Candida albicans ATCC 10231 at concentration of 0.25 MIC by XTT assay; assay type: functional, organism-based
Candida albicans [13] = assay: Antifungal activity against fluconazole-resistant Candida albicans Gu5 assessed as reduction in microbial growth; assay type: functional
Candida albicans [14] = assay: Antifungal activity against Candida albicans ATCC 10231 assessed as reduction in microbial growth; assay type: functional
Saccharomyces cerevisiae [15] = assay: Antifungal activity against Saccharomyces cerevisiae ATCC 9763 assessed as reduction in microbial growth; assay type: functional
Nakaseomyces glabratus [16] = assay: Antifungal activity against Candida glabrata ATCC 90030 assessed as reduction in microbial growth; assay type: functional
Saccharomyces cerevisiae [17] = assay: Inhibition of Saccharomyces cerevisiae DNA topoisomerase 2 assessed as decrease in relaxation of supercoiled DNA using supercoiled pBR322 plasmid DNA at 100 to 150 uM gel electrophoresis method; conditions: dose 100-150 µM
Saccharomyces cerevisiae [18] = assay: Fungicidal activity against Saccharomyces cerevisiae ATCC 9763; assay type: functional
Candida albicans [19] = assay: Antifungal activity against fluconazole-sensitive Candida albicans B3 assessed as reduction in microbial growth; assay type: functional
Candida parapsilosis [20] = assay: Fungicidal activity against Candida parapsilosis DSM 5784; assay type: functional; conditions: Lodderomyces parapsilosis
Candida albicans [21] = assay: Antifungal activity against fluconazole-sensitive Candida albicans F2 assessed as reduction in microbial growth; assay type: functional
Candida albicans [22] = assay: Fungicidal activity against Candida albicans ATCC 10231; assay type: functional
Pichia kudriavzevii [23] = assay: Fungicidal activity against Candida krusei DSM 6128; assay type: functional
Escherichia coli = assay: Antibacterial activity against Escherichia coli ATCC 10536 assessed as reduction in microbial growth incubated for 48 hrs by photometric method; assay type: functional
Candida albicans [24] = assay: Fungicidal activity against Candida albicans ATCC 10231 assessed as bacterial killing at concentration of 4 MIC after 5 hrs relative to control; assay type: functional
Candida albicans [25] = assay: Fungicidal activity against Candida albicans ATCC 10231 assessed as bacterial killing at concentration of 0.25 to 4 MIC after 1 hrs relative to control; assay type: functional
Staphylococcus aureus = assay: Antibacterial activity against Staphylococcus aureus ATCC 9144 assessed as reduction in microbial growth incubated for 48 hrs by photometric method; assay type: functional
Candida albicans [26] = assay: Fungicidal activity against Candida albicans ATCC 10231 assessed as bacterial killing at concentration of 0.25 MIC after 5 hrs relative to control; assay type: functional
Candida albicans [27] = assay: Antifungal activity against Candida albicans CNCM 1180-79 assessed as reduction in microbial growth incubated for 72 hrs by photometric method; assay type: functional
Candida albicans [28] = assay: Fungicidal activity against Candida albicans ATCC 10231 assessed as bacterial killing at concentration of MIC after 5 hrs relative to control; assay type: functional
Candida albicans [29] = assay: Fungicidal activity against Candida albicans ATCC 10231 assessed as bacterial killing after 5 hrs; assay type: functional, organism-based
Candida albicans [30] = assay: Fungicidal activity against Candida albicans ATCC 10231 assessed as bacterial killing at concentration of 2 MIC after 5 hrs relative to control; assay type: functional
Candida albicans [31] = assay: Fungicidal activity against Candida albicans ATCC 10231 assessed as bacterial killing at concentration of 0.5 MIC after 5 hrs relative to control; assay type: functional
Candida = assay: Antifungal activity against Candida; assay type: functional

SMILES	inhibition (Saccharomyces cerevisiae [1])	MFC (Nakaseomyces glabratus [2]) [µg/mL]	MIC90 (Pichia kudriavzevii [3]) [µg/mL]	MIC90 (Candida albicans [4]) [µg/mL]	MIC90 (Candida albicans [5]) [µg/mL]	growth inhibition (GI) (Candida albicans [6])	Ratio [7]	growth inhibition (GI) (Candida albicans [8])	growth inhibition (GI) (Candida albicans [9])	MIC90 (Candida albicans [10]) [µg/mL]	MIC90 (Candida parapsilosis [11]) [µg/mL]	Activity (Candida albicans [12])	MIC90 (Candida albicans [13]) [µg/mL]	MIC90 (Candida albicans [14]) [µg/mL]	MIC90 (Saccharomyces cerevisiae [15]) [µg/mL]	MIC90 (Nakaseomyces glabratus [16]) [µg/mL]	MFC (Saccharomyces cerevisiae [18]) [µg/mL]	MIC90 (Candida albicans [19]) [µg/mL]	MIC90 (Candida albicans [21]) [µg/mL]	MFC (Candida albicans [22]) [µg/mL]	also measured
NCCCC[C@H](N)C(=O)NCCCNc1c2ccccc2nc2cccc([N+](=O)[O-])c12	Active	> 128	64	32	16	Active	>=1	Active	Active	64	32	Active	32	8	16	32	16 (≈ 37.7 µM)	16	64	16 (≈ 37.7 µM)	inhibition (Saccharomyces cerevisiae [17]): Active; MFC (Candida parapsilosis [20]): > 128 µg/mL
O=[N+]([O-])c1cccc2nc3ccccc3c(NCCNCCNCCNc3c4ccccc4nc4cccc([N+](=O)[O-])c34)c12	–	32 (≈ 54.2 µM)	32	> 64	> 64	Active	>=1	inactive	100%	> 64	32	Active	> 64	64	8	32	16 (≈ 27.1 µM)	> 64	> 64	–	MFC (Pichia kudriavzevii [23]): 32 µg/mL (≈ 54.2 µM); inhibition (Saccharomyces cerevisiae [17]): Active
Cc1ccc([N+](=O)[O-])c2c(NCCO)c3ccccc3nc12	inactive	> 64	8	4	> 64	inactive	>=1	inactive	inactive	> 64	64	Active	32	1	0.5	8	0.5 (≈ 1.68 µM)	4	2	2 (≈ 6.73 µM)	MIC (Escherichia coli): 50 µg/mL; Activity (Candida albicans [24]): 80%; Activity (Candida albicans [25]): 10%; MIC (Staphylococcus aureus): 50 µg/mL; Activity (Candida albicans [26]): 5%; MIC (Candida albicans [27]): 50 µg/mL; Activity (Candida albicans [28]): 60%; Activity (Candida albicans [29]): Dose-dependent effect; MFC (Pichia kudriavzevii [23]): 16 µg/mL (≈ 53.8 µM); Activity (Candida albicans [30]): 70%; Activity (Candida albicans [31]): 5%
COc1cc([C@@H]2c3cc4c(cc3[C@@H](O[C@@H]3O[C@@H]5CO[C@@H](C)O[C@H]5[C@H](O)[C@H]3O)[C@H]3COC(=O)[C@H]23)OCO4)cc(OC)c1O [ETOPOSIDE]	–	–	–	–	–	–	–	–	–	–	–	–	–	–	–	–	–	–	–	–	MIC (Candida): 50 µg/mL (≈ 85 µM)
O=[N+]([O-])c1cccc2nc3ccccc3c(NCCO)c12	inactive	32 (≈ 113 µM)	8	4	> 64	inactive	>=1	inactive	inactive	> 64	32	Active	32	2	0.25	16	0.25 (≈ 0.882 µM)	2	4	4 (≈ 14.1 µM)	MIC (Escherichia coli): 50 µg/mL; MIC (Staphylococcus aureus): 50 µg/mL; MIC (Candida albicans [27]): 50 µg/mL; MFC (Pichia kudriavzevii [23]): 32 µg/mL (≈ 113 µM); MFC (Candida parapsilosis [20]): 64 µg/mL (≈ 226 µM)
